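Each compound was tested at five concentrations against cells in 96-well plates for 48 hours. Abbreviation: GI50, concentration required for 50% inhibition of growth.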 The source made the active and inactive calls. Cut-off read from the data, not from the text of the source: active = GI50 up to about 1.1 µM and inactive = higher.
Experiments:
Assay in all cases: DTP human tumour cell line panel, 48 h
M14 = tested on: M14
DLD-1 = tested on: DLD-1
ACHN = tested on: ACHN
786-0 = tested on: 786-0
IGROV-1 = tested on: IGROV-1
MDA-N = tested on: MDA-N
EKVX = tested on: EKVX
SNB-78 = tested on: SNB-78
NCI/ADR-RES = tested on: NCI/ADR-RES
Hs-578T = tested on: Hs-578T
RPMI-8226 = tested on: RPMI-8226
HCT-15 = tested on: HCT-15
M19-MEL = tested on: M19-MEL
A549 = tested on: A549
UACC-257 = tested on: UACC-257
NCI-H460 = tested on: NCI-H460
LXFL 529 = tested on: LXFL 529
SK-MEL-28 = tested on: SK-MEL-28
RXF 631 = tested on: RXF 631
SK-OV-3 = tested on: SK-OV-3
SNB-75 = tested on: SNB-75
HOP-92 = tested on: HOP-92
SNB-19 = tested on: SNB-19
CAKI-1 = tested on: CAKI-1
BT-549 = tested on: BT-549
SF-539 = tested on: SF-539
OVCAR-8 = tested on: OVCAR-8
T47D = tested on: T47D
COLO 205 = tested on: COLO 205
MCF7 = tested on: MCF7
OVCAR-4 = tested on: OVCAR-4
SF-268 = tested on: SF-268
U-251 = tested on: U-251
DMS-273 = tested on: DMS-273
A498 = tested on: A498
HT-29 = tested on: HT-29
OVCAR-3 = tested on: OVCAR-3
SN12C = tested on: SN12C
MOLT-4 = tested on: MOLT-4
MDA-MB-231 = tested on: MDA-MB-231
TK-10 = tested on: TK-10
UO-31 = tested on: UO-31
XF498 = tested on: XF498
PC-3 = tested on: PC-3
K562 = tested on: K562
HCC 2998 = tested on: HCC 2998
SK-MEL-2 = tested on: SK-MEL-2
HL-60 = tested on: HL-60
DMS-114 = tested on: DMS-114
RXF 393 = tested on: RXF 393
NCI-H23 = tested on: NCI-H23
SF-295 = tested on: SF-295
KM-20L2 = tested on: KM-20L2
HCT-116 = tested on: HCT-116
DU-145 = tested on: DU-145
Malme-3M = tested on: Malme-3M
SW-620 = tested on: SW-620
UACC-62 = tested on: UACC-62
SK-MEL-5 = tested on: SK-MEL-5
NCI-H226 = tested on: NCI-H226
OVCAR-5 = tested on: OVCAR-5
MDA-MB-435 = tested on: MDA-MB-435
NCI-H522 = tested on: NCI-H522
KM12 = tested on: KM12
LOX IMVI = tested on: LOX IMVI
CCRF-CEM = tested on: CCRF-CEM
HOP-62 = tested on: HOP-62

COC(=O)C(CBr)CBr
GI50 (M14): 2.15 µM (inactive) | GI50 (DLD-1): 2.04 µM (inactive) | GI50 (ACHN): 3.7 µM (inactive) | GI50 (786-0): 4.52 µM (inactive) | GI50 (IGROV-1): 10.4 µM (inactive) | GI50 (MDA-N): 3.48 µM (inactive) | GI50 (EKVX): 9.55 µM (inactive) | GI50 (SNB-78): 1.79 µM (inactive) | GI50 (NCI/ADR-RES): 3.1 µM (inactive) | GI50 (Hs-578T): 4.65 µM (inactive) | GI50 (RPMI-8226): 757 nM (active) | GI50 (HCT-15): 1710 nM | GI50 (M19-MEL): 3.21 µM (inactive) | GI50 (A549): 18.2 µM (inactive) | GI50 (UACC-257): 5.58 µM (inactive) | GI50 (NCI-H460): 14 µM (inactive) | GI50 (LXFL 529): 1.79 µM (inactive) | GI50 (SK-MEL-28): 3.77 µM (inactive) | GI50 (RXF 631): 3.05 µM (inactive) | GI50 (SK-OV-3): 18.8 µM (inactive) | GI50 (SNB-75): 16.3 µM (inactive) | GI50 (HOP-92): 1.79 µM (inactive) | GI50 (SNB-19): 8.51 µM (inactive) | GI50 (CAKI-1): 5.51 µM (inactive) | GI50 (BT-549): 2.65 µM (inactive) | GI50 (SF-539): 5.96 µM (inactive) | GI50 (OVCAR-8): 3.41 µM (inactive) | GI50 (T47D): 2.5 µM (inactive) | GI50 (COLO 205): 1.27 µM (inactive) | GI50 (MCF7): 4.46 µM (inactive) | GI50 (OVCAR-4): 4.03 µM (inactive) | GI50 (SF-268): 15.1 µM (inactive) | GI50 (U-251): 5.56 µM (inactive) | GI50 (DMS-273): 12.7 µM (inactive) | GI50 (A498): 16.8 µM (inactive) | GI50 (HT-29): 4.1 µM (inactive) | GI50 (OVCAR-3): 2.65 µM (inactive) | GI50 (SN12C): 3.9 µM (inactive) | GI50 (MOLT-4): 1.69 µM (inactive) | GI50 (MDA-MB-231): 2.12 µM (inactive) | GI50 (TK-10): 4.79 µM (inactive) | GI50 (UO-31): 5.65 µM (inactive) | GI50 (XF498): 2.3 µM (inactive) | GI50 (PC-3): 10.2 µM (inactive) | GI50 (K562): 1.57 µM (inactive) | GI50 (HCC 2998): 4.49 µM (inactive) | GI50 (SK-MEL-2): 10.8 µM (inactive) | GI50 (HL-60): 253 nM (active) | GI50 (DMS-114): 2.06 µM (inactive) | GI50 (RXF 393): 2.19 µM (inactive) | GI50 (NCI-H23): 6.78 µM (inactive) | GI50 (SF-295): 16.2 µM (inactive) | GI50 (KM-20L2): 6.76 µM (inactive) | GI50 (HCT-116): 2.96 µM (inactive) | GI50 (DU-145): 16.6 µM (inactive) | GI50 (Malme-3M): 2.2 µM (inactive) | GI50 (SW-620): 1.27 µM (inactive) | GI50 (UACC-62): 9.42 µM (inactive) | GI50 (SK-MEL-5): 8.75 µM (inactive) | GI50 (NCI-H226): 13.3 µM (inactive) | GI50 (OVCAR-5): 16.8 µM (inactive) | GI50 (MDA-MB-435): 3.33 µM (inactive) | GI50 (NCI-H522): 2.14 µM (inactive) | GI50 (KM12): 8.04 µM (inactive) | GI50 (LOX IMVI): 2.6 µM (inactive) | GI50 (CCRF-CEM): 762 nM (active) | GI50 (HOP-62): 22.5 µM (inactive)

From ChEMBL document CHEMBL1201862, “PubChem BioAssay data set” (2004)
